# Laboratory results from PMC7241567 (Journal of Enzyme Inhibition and Medicinal Chemistry, 2020).
# Molecular target: T1, EGFR (Homo sapiens, UniProt P00533)
# T1 construct: purchased Reaction Biology Corp. (Kinase HotSpot service)
# Assay: Reaction Biology Kinase HotSpot radiometric kinase assay
# Format: biochemical
# T1 sequence (P00533 25-1210): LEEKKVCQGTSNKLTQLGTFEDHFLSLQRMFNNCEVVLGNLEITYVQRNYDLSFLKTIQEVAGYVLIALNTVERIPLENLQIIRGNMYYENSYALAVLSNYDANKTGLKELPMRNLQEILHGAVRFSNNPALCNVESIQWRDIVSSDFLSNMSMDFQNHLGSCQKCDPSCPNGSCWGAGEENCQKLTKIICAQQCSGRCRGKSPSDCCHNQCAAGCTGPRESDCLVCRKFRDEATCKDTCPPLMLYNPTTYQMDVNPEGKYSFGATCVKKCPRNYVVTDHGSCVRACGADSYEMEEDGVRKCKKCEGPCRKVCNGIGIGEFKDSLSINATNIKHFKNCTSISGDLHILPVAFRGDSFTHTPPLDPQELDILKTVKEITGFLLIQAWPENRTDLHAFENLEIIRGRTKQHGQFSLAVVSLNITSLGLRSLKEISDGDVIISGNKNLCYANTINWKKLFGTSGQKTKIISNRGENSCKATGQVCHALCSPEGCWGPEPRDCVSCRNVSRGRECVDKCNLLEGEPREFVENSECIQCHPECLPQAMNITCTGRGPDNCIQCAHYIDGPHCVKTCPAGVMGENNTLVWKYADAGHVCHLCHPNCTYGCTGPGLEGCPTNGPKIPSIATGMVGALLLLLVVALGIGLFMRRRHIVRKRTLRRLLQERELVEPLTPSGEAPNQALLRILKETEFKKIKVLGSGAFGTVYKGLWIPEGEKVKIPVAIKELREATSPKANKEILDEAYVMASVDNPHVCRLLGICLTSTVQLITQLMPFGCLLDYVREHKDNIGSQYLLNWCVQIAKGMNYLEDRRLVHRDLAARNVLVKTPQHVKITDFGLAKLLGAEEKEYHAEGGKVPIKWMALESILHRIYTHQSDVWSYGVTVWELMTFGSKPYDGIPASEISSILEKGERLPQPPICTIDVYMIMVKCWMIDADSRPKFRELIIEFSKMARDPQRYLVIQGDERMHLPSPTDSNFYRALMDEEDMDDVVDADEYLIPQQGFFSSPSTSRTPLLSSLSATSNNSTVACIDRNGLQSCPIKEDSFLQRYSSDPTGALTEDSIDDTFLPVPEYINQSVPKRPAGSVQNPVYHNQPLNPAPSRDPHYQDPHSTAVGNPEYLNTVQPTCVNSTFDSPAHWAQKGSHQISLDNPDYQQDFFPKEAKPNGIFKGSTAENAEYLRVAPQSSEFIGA
smiles,measurement,value
"Cc1oncc1C(=O)Nc1ccc2cnc(-c3cc(N4CCN(C)CC4)cc(C(F)(F)F)c3)nc2c1 [Compound 7d, 5-methyl-N-(2-(3-(4-methylpiperazin-1-yl)-5-(trifluoromethyl)phenyl)quinazolin-7-yl)isoxazole-4-carboxamide]",inhibition at 10 µM,0%
